Series [1] can be described thus: Self-assembled nanostructures observed by SEM and STEM. The format is physicochemical. The source says:
Microscopy techniques such as optical light microscopy, scanning electron microscopy (SEM), transmission electron microscopy (TEM), atomic force microscopy (AFM)/scanning probe microscopy (SPM), and fluorescence microscopy are useful for determining the size and morphology of the nano (and micro) structures formed from alkylated derivatives of aromatic acids. Samples are typically prepared by depositing a drop of the liquid composition containing the nanostructures onto an appropriate sample substrate such as a carbon film coated copper mesh TEM grid, removing the excess liquid by blotting with filter paper, and then allowing to dry prior to analysis. Dynamic light scattering is also useful for detecting the presence of particles between 1 nm and 1 μm in size, measuring the size/size distribution of the dispersed particles. Rheometry is useful for determining the viscoelastic properties and thermal phase transitions for compositions of the self-assembled nanostructures. X-ray diffraction is useful for characterizing the structure of the self-assembled nanostructures size as phase identification, crystallinity, phase transitions, crystal structure refinement and determination, and size and strain broadening of crystallite nanostructures. NMR spectroscopy is useful in detecting the formation intermolecular noncovalent interactions stabilizing the nanostructures, their diffusion properties, as well as phase transitions. UV-Vis can be used for detecting the presence of nanostructures as well as confirming the presence of intermolecular pi-stacking interactions. FT-IR spectroscopy is also useful for the detection of hydrogen-bonding interactions involved in stabilizing the self-assembled nanostructures. Differential Scanning calorimetry (DSC) is another useful characterization technique, which enables the identification of thermal phase transitions within the compositions containing the nanostructures.
This example describes the self-assembled nanostructures formed from alkylated derivatives of aromatic acids deposited onto substrates observed by Scanning Electron and Scanning Transmission Electron Microscopy (SEM and STEM, respectively).
Microscopy samples are prepared by mixing the alkylated derivatives of aromatic acids as solids with a solvent, subjecting the mixture to bath sonication, and then heating to form a clear solution. The solutions are then cooled to room temperature and allowed to age for desired periods of time prior to microscopy sample preparation. After cooling, the samples may be clear solutions, turbid colloidal solutions, or more opaque dispersions. Microscopy samples are prepared for analysis by depositing a drop on thin carbon film coated copper mesh grids, allowing the drop to remain on the film for a desired period of time, followed by wicking away the excess solvent with filter paper and allowing to dry. Table 5 summarizes examples of compositions containing nanostructures of alkylated derivatives of selected aromatic acids for this invention. FIGS. 1 to 7 show Scanning Electron Microscopy and Scanning Transmission Electron Microscopy images of the nanostructures formed from alkylated derivatives of selected aromatic acids.

Series [2] in a line: Gelation test (gelator ability in solvents, vial inversion). The format is physicochemical. More on the design: key: I = insoluble; P = precipitate; S = solution; VS = viscous solution; G = gel; PG = partial gel. Particulars: concentration in wt % in parentheses in each cell. On the procedure:
A number of characterization methods are useful for detecting and characterizing self-assembled nanostructures from alkylated derivatives of aromatic acids. The simplest test is to observe any changes in viscosity (rheology) of the liquid containing the alkylated compound relative to the neat liquid alone. […] The increase in viscosity and gelation of liquids is known to occur due to the presence and entanglement of long, 1D aggregates.
To vials with a screw cap lids (4 mL capacity) were added alkylated derivatives of aromatic acids as solids (1-100 mg) and a solvent (1 mL). The mixture was then sonicated and heated until clear solutions were obtained. After cooling and standing at room temperature for at least 30 min., the sample was inverted and inspected visually.

[3] abbreviates: Xylenes:THF (1:1), 1.3 mg/mL, fibrils.
[4] abbreviates: solvent H2O, sonicated, heated, cooled, room temperature at least 30 min, vial inverted.
The mark [5] stands for this setting: Toluene, 0.1 mg/mL, bundles of fibrils.

“Also recorded” adds a separate entry of the source. A value given as a limit tells only on which side of the number the result lay.

In the case of `CCCC(=O)Nc1cc(C(=O)O)cc(C(=O)O)c1` [compound 45, 5-(butyramido)isophthalic acid], the L in series [1] (setting [3]) is 50-1000 nm; in series [1] (Xylenes:THF (1:1), 1.3 mg/mL, sheets) it was 2000-10000 nm. For the same compound, the W in series [1] (setting [3]) is 3-6 nm. Further, the “gelator ability (state of sample)” value in series [2] (solvent CHCl3) is on record as “I (0.1)”; in series [2] (solvent Ethylene Glycol), “S (0.1)”; in series [2] (setting [4]), “I (0.1)”; in series [2] (solvent Hexadecane), “I (1.1)”; in series [2] (solvent Hexanes), “I (0.1)”; in series [2] (solvent MeOH), “S”. In series [2] (solvent Toluene), the “gelator ability (state of sample)” value is given as “I (1.3)”.

For `CCCCCCCCCCCCC(CCCCCCCCCC)C(=O)Nc1cc(C(N)=O)cc(C(N)=O)c1` (stereo not shown) [compound 74, 5-(2-decyltetradecanamido)isophthalamide], the “Description (nanostructure)” value is reported as “Fibrils” in series [1] (Chloroform, 0.1 mg/mL); “Fibers” in series [1] (Chloroform, 1.0 mg/mL); “Fibers; also recorded: Fibrils” in series [1] (EtOH:H2O, 1.0 mg/mL). Further, the L was 50-1000 nm in series [1] (Chloroform, 0.1 mg/mL, fibrils); 300-800 nm in series [1] (Chloroform, 1.0 mg/mL, fibers); greater than 5000 nm in series [1] (EtOH:H2O, 1.0 mg/mL, fibers); 10-100 nm in series [1] (EtOH:H2O, 1.0 mg/mL, fibrils). The W in series [1] (Chloroform, 0.1 mg/mL, fibrils) is 5-10 nm; in series [1] (Chloroform, 1.0 mg/mL, fibers) it was 25-200 nm; in series [1] (EtOH:H2O, 1.0 mg/mL, fibers), 50-250 nm; in series [1] (EtOH:H2O, 1.0 mg/mL, fibrils), 5-10 nm. Also, the “gelator ability (state of sample)” value was “P (0.1)” in series [2] (solvent CHCl3); “I (0.1)” in series [2] (solvent Cyclohexane); “I (2.0)” in series [2] (solvent Decalin); “S (0.1)” in series [2] (solvent Dimethoxyethane); “P (2.5)” in series [2] (solvent Ethylene Glycol); “I (0.1)” in series [2] (setting [4]). Moreover, the “gelator ability (state of sample)” value was “I (0.1)” in series [2] (solvent Hexanes), “S (3.0)” in series [2] (solvent MeOH), “I (0.5)” in series [2] (solvent Toluene) and “I (2.0)” in series [2] (solvent Xylenes).

In the case of `CCCCCCCCCCCCCCCCCCNC(=O)Nc1cc(C(=O)O)cc(C(=O)O)c1` [compound 56], in series [1] (Chloroform, 0.1 mg/mL), the “Description (nanostructure)” value is “Fibrils”. The same compound registered a L in series [1] (Chloroform, 0.1 mg/mL, fibrils) greater than 1000 nm. In addition, in series [1] (Chloroform, 0.1 mg/mL, fibrils), the W was 5-10 nm. The “gelator ability (state of sample)” value in series [2] (solvent CHCl3) is listed as “I (0.1)”; in series [2] (solvent Decalin) it was “G (2.3)”; in series [2] (solvent Dimethoxyethane), “S (1.0)”; in series [2] (solvent Ethylene Glycol) it was “P (0.5)”; in series [2] (setting [4]) it was “I (0.1)”; in series [2] (solvent Hexadecane), “I (0.1)”. Moreover, the figures for the “gelator ability (state of sample)” value in series [2] (solvent MeOH), in series [2] (solvent Toluene) and in series [2] (solvent Xylenes) were “G (2.0)”, “I (0.1)” and “G (2.0)”, respectively.

As for `CCCCCCCCCCCCC(CCCCCCCCCC)C(=O)Nc1cc(C(=O)O)cc(C(=O)O)c1` (stereo not shown) [compound 53, 5-(2-decyltetradecanamido)isophthalic acid], the “Description (nanostructure)” value in series [1] (Toluene, 0.1 mg/mL) is given as “Bundles of fibrils”. Moreover, the L is given as greater than 1000 nm in series [1] (setting [5]) and greater than 1000 nm in series [1] (Toluene, 0.1 mg/mL, fibrils). In addition, the W in series [1] (setting [5]) is 20-100 nm; in series [1] (Toluene, 0.1 mg/mL, fibrils), 5-10 nm. Also, the “gelator ability (state of sample)” value in series [2] (solvent Benzene) is reported as “G (0.4)”; in series [2] (solvent CHCl3), “G (0.4)”; in series [2] (solvent Cyclohexane) it was “G (1.0)”; in series [2] (solvent Decalin), “G (0.5)”; in series [2] (solvent Dimethoxyethane) it was “G (0.6)”; in series [2] (solvent Dodecane), “G (1)”. In addition, the “gelator ability (state of sample)” value in series [2] (solvent Ethylene Glycol) was “PG (2.0)”; in series [2] (setting [4]), “I (0.1)”; in series [2] (solvent Hexadecane), “G (1)”; in series [2] (solvent Hexanes), “P (0.2),”; in series [2] (solvent MeOH) it was “S (0.1)”; in series [2] (solvent Toluene), “G (1.0)”. Further, the “gelator ability (state of sample)” value in series [2] (solvent Xylenes) is “G (1)”.

Source of the values: patent publication US8703988B2, “Self-assembled nanostructures” (Xerox Corporation, priority 2010, dated 2014).
